Assay results taken from article PMC6151762, “Halogenated 1-Hydroxynaphthalene-2-Carboxanilides Affecting Photosynthetic Electron Transport in Photosystem II” (Molecules : A Journal of Synthetic Chemistry and Natural …, 2017).
pIC50: −log10 of the molar value. Several values for one entry are separate records, joined by “and”; a condition that tells them apart may be missing. Equal entries are not always repeated. Where two headings read alike, the source gives them in different places.

Key:
[1] = test system: photosynthetic electron transport (PET) in spinach chloroplasts; design: method as in Gonec et al. [11]; settings: compounds 1-7 published earlier, ref Gonec et al. [11], read-out: PET Inhibition IC50; cited from earlier work
[2] = test system: photosynthetic electron transport (PET) in spinach chloroplasts; experiment: Inhibition of photosynthetic electron transport (PET) in spinach chloroplasts (DCPIP photoreduction); format: biochemical, Spinacia oleracea L.; settings: chlorophyll 30 mg/L
Protocol: Chloroplasts were prepared from spinach (Spinacia oleracea L.) according to Masarovicova and Kralova. The inhibition of photosynthetic electron transport (PET) in spinach chloroplasts was determined spectrophotometrically (Genesys 6, Thermo Scientific, USA), using an artificial electron acceptor 2,6-dichlorophenol-indophenol (DCIPP) according to Kralova et al., and the rate of photosynthetic electron transport was monitored as photoreduction of DCPIP. The measurements were carried out in phosphate buffer (0.02 M, pH 7.2) containing sucrose (0.4 M), MgCl2 (0.005 M) and NaCl (0.015 M). The chlorophyll content was 30 mg/L in these experiments, and the samples were irradiated (~100 W/m^2 with 10 cm distance) with a halogen lamp (250 W) using a 4-cm water filter to prevent warming of the samples (suspension temperature 22 °C). The studied compounds were dissolved in DMSO due to their limited water solubility. […] The inhibitory efficiency of the studied compounds was expressed by IC50 values, i.e., by molar concentration of the compounds causing a 50% decrease in the […] relative to the untreated control.

[3] = Aqueous solubility (qualitative); format: physicochemical; settings: compared with 2,5-, 2,6-, 3,4- and 3,5-disubstituted derivatives
[4] = test system: aromatic amino acids (AAA) in photosynthetic proteins situated mainly in PS II; experiment: Fluorescence of aromatic amino acids in spinach chloroplasts; format: biochemical, Spinacia oleracea L.; settings: with increasing concentration (c = 0-47.2 μM); λex = 275 nm; chlorophyll 10 mg/L
Protocol: (§1) The fluorescence emission spectra of chlorophyll a (Chla) and aromatic amino acids in spinach chloroplasts were recorded on fluorescence spectrophotometer F-2000 (Hitachi, Tokyo, Japan) using excitation wavelength λex = 436 nm for monitoring the fluorescence of Chla and λex = 275 nm for monitoring the fluorescence of aromatic amino acids, excitation slit 20 nm and emission slit 10 nm. The samples were kept in the dark for 2 min prior to the measurement. The phosphate buffer used for dilution of the chloroplast suspension was the same as described above. Due to low aqueous solubility, the compounds were added to a chloroplast suspension in DMSO solution. The DMSO concentration in all samples was the same as in the control (10%). The chlorophyll concentration in chloroplast suspension was 10 mg/L.

[5] = test system: chlorophyll a (Chla) in pigment-protein complexes in PS II; experiment: Fluorescence of chlorophyll a in spinach chloroplasts; format: biochemical, Spinacia oleracea L.; settings: with increasing concentration (c = 0, 56, 220, 431 μM); λex = 436 nm; chlorophyll 10 mg/L
Protocol: as §1

Structure (SMILES) | pIC50 [2] | melting point [°C] | other results
O=C(Nc1ccc(Br)cc1)c1ccc2ccccc2c1O [Compound 7] | – | – | pIC50 [1]: 5.02
O=C(Nc1ccc(Br)cc1Br)c1ccc2ccccc2c1O [Compound 17, N-(2,4-Dibromophenyl)-1-hydroxynaphthalene-2-carboxamide] | 3.30 | 185 to 188 | aqueous solubility [3]: limited aqueous solubility
O=C(Nc1cc(Cl)ccc1Cl)c1ccc2ccccc2c1O [Compound 10, N-(2,5-Dichlorophenyl)-1-hydroxynaphthalene-2-carboxamide] | 4.22 | – | –
CN(C)C(=O)Nc1ccc(Cl)c(Cl)c1 [DCMU, 3-(3,4-dichlorophenyl)-1,1-dimethylurea, reference compound] | ~5.72 and 5.72 | – | –
O=C(Nc1cc(Br)ccc1Br)c1ccc2ccccc2c1O [Compound 18, N-(2,5-Dibromophenyl)-1-hydroxynaphthalene-2-carboxamide] | 5.12 | 198 to 200 | –
O=C(Nc1cccc(Br)c1)c1ccc2ccccc2c1O [Compound 6] | – | – | pIC50 [1]: 5.09
O=C(Nc1c(Cl)cc(Cl)cc1Cl)c1ccc2ccccc2c1O [Compound 15, 1-Hydroxy-N-(2,4,6-trichlorophenyl)naphthalene-2-carboxamide] | 4.97 | – | –
O=C(Nc1cccc(Cl)c1Cl)c1ccc2ccccc2c1O [Compound 8, N-(2,3-Dichlorophenyl)-1-hydroxynaphthalene-2-carboxamide] | 3.63 | – | aqueous solubility [3]: limited aqueous solubility
O=C(Nc1cc(Cl)c(Cl)c(Cl)c1)c1ccc2ccccc2c1O [Compound 16, 1-Hydroxy-N-(3,4,5-trichlorophenyl)naphthalene-2-carboxamide] | 5.10 | – | –
O=C(Nc1ccccc1Cl)c1ccc2ccccc2c1O [Compound 2] | – | – | pIC50 [1]: 4.53
O=C(Nc1ccc(Cl)cc1Br)c1ccc2ccccc2c1O [Compound 21, N-(2-Bromo-4-chlorophenyl)-1-hydroxynaphthalene-2-carboxamide] | 3.56 | 182 to 184 | aqueous solubility [3]: limited aqueous solubility
O=C(Nc1cc(Cl)c(Cl)cc1Cl)c1ccc2ccccc2c1O [Compound 14, 1-Hydroxy-N-(2,4,5-trichlorophenyl)naphthalene-2-carboxamide] | 3.81 | – | –
O=C(Nc1ccc(Cl)cc1Cl)c1ccc2ccccc2c1O [Compound 9, N-(2,4-Dichlorophenyl)-1-hydroxynaphthalene-2-carboxamide] | 3.27 | – | aqueous solubility [3]: limited aqueous solubility
O=C(Nc1c(Cl)cccc1Cl)c1ccc2ccccc2c1O [Compound 11, N-(2,6-Dichlorophenyl)-1-hydroxynaphthalene-2-carboxamide] | 4.00 | – | –
O=C(Nc1ccccc1Br)c1ccc2ccccc2c1O [Compound 5] | – | – | pIC50 [1]: 4.21
O=C(Nc1c(Br)cc(Br)cc1Br)c1ccc2ccccc2c1O [Compound 20, 1-Hydroxy-N-(2,4,6-tribromophenyl)naphthalene-2-carboxamide] | 4.35 | 115 to 118 | –
O=C(Nc1ccc(Br)cc1Cl)c1ccc2ccccc2c1O [Compound 22, N-(4-Bromo-2-chlorophenyl)-1-hydroxynaphthalene-2-carboxamide] | 3.77 | 186 to 187 | aqueous solubility [3]: limited aqueous solubility
O=C(Nc1ccc(Cl)cc1)c1ccc2ccccc2c1O [Compound 4] | – | – | pIC50 [1]: 4.97
O=C(Nc1cc(Br)ccc1Cl)c1ccc2ccccc2c1O [Compound 23, N-(5-Bromo-2-chlorophenyl)-1-hydroxynaphthalene-2-carboxamide] | 4.22 | 178 to 180 | AAA fluorescence at 334 nm [4]: quenching of AAA fluorescence at 334 nm was observed; intensity of Chla fluorescence emission band at 686 nm [5]: gradual decrease
O=C(Nc1ccc(Br)c(Cl)c1)c1ccc2ccccc2c1O [Compound 24, N-(4-Bromo-3-chlorophenyl)-1-hydroxynaphthalene-2-carboxamide] | 5.17 | 203 to 205 | –
O=C(Nc1c(Br)cccc1Br)c1ccc2ccccc2c1O [Compound 19, N-(2,6-Dibromophenyl)-1-hydroxynaphthalene-2-carboxamide] | 4.11 | 212 to 216 | –
O=C(Nc1cccc(Cl)c1)c1ccc2ccccc2c1O [Compound 3] | – | – | pIC50 [1]: 5.10
O=C(Nc1ccc(Cl)c(Cl)c1)c1ccc2ccccc2c1O [Compound 12, N-(3,4-Dichlorophenyl)-1-hydroxynaphthalene-2-carboxamide] | 4.88 | – | –
O=C(Nc1ccccc1)c1ccc2ccccc2c1O [Compound 1] | – | – | pIC50 [1]: 4.50
O=C(Nc1cc(Cl)cc(Cl)c1)c1ccc2ccccc2c1O [Compound 13, N-(3,5-Dichlorophenyl)-1-hydroxynaphthalene-2-carboxamide] | 5.28 | – | –
